For assay [1], the target named is FXa (Homo sapiens, UniProt P00742). Nature of the assay: Clotting curves: clot detection time versus FXa agonist gradient (FIGS. 7A-7C). The assay is classed as biochemical. The method, then: (§1) Clot detection agents can include fluorescent labeled fibrinogen, magnets, beads (may be fluorescent or colored) • b) Load into microfluidic device • i. See, e.g., FIGS. 1A-1D, 2A and 2B for examples of input loading configuration and order • c) Temperature control • i. Room temperature • ii. May increase up to 37° C.
Sequence of FXa (P00742 235-488 limits assumed): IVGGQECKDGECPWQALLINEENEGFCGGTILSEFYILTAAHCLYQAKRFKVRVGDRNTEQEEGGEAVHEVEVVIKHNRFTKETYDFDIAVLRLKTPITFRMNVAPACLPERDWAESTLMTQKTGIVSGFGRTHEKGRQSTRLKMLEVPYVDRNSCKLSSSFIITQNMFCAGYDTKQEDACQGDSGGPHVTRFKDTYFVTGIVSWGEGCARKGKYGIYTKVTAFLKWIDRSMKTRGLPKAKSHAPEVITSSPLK
Sequence of FXa (P00742 41-179 partner limits assumed): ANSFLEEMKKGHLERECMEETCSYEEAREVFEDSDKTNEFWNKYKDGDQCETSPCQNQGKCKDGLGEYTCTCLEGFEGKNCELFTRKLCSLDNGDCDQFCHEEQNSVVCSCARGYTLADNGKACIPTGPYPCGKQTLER
(§2) The time it takes for each of the combinations to form a clot is then plotted. […] Concentration of the agonist (FXa for FIGS. 7A-7C, and FIIa for FIG. 7D) is plotted on the X-axis for each of the figures.

In assay [2] the target is FIIa (Homo sapiens, UniProt P00734). On the procedure: as §1, §2
In assay [3] the target is Factor Xa (Homo sapiens, UniProt P00742). Nature of the assay: Clot detection in whole blood in parallel microfluidic channel device pre-coated with Factor Xa. The assay is classed as biochemical. The note with it: whole blood with unfractionated heparin, 10 minutes. On the procedure:
FIGS. 4A and 4B are fluorescent images illustrating clot detection using whole blood in a parallel microfluidic channel device 410 according to an example embodiment. Microfluidic channels 420 were pre-coated with agonist, Factor Xa, at various concentrations (7.5 ng/mL, 75 ng/mL, 750 ng/mL) or with buffer alone (negative control). The fluorescent images are taken at one time point (10 minutes). Microfluidic channels were washed with buffer prior to use to leave only bound FXa within the microfluidic channel. Fresh whole blood was placed into each input port and the blood was drawn in through capillary action. The blood was left to flow for 10 minutes and then the channel was gently washed with buffer. Depicted is a brightfield image of two samples evaluated. […] Unfractionated heparin inhibits Factors IIa and Xa in an antithrombin III-dependent fashion, which is why the addition of these factors at appropriate concentrations can help recover the clotting capability of the sample.

Read-outs that look alike come from different tables or passages of the source. Bounds are passed on as bounds.

This note sets out measurements from patent US20230166255A1, “Methods And Devices For Detection Of Anticoagulants In Plasma And Whole Blood” (Massachusetts Institute of Technology, priority 2017, published 2023).

Sequence of Factor Xa (P00742 235-488 limits assumed): as the sequence (P00742 235-488 limits assumed) above
Sequence of Factor Xa (P00742 41-179 partner limits assumed): as the sequence (P00742 41-179 partner limits assumed) above

Turning to `O=C(NC[C@H]1CN(c2ccc(N3CCOCC3=O)cc2)C(=O)O1)c1ccc(Cl)s1` [Rivaroxaban], the clot formation time result in assay [1] (250 ng/mL Rivaroxaban, agonist (FXa) concentration down to 375 ng/mL) is “significantly longer than the negative control but lower than 500 ng/mL”. The “clot formation detected (time)” value in assay [1] (500 ng/mL Rivaroxaban, agonist (FXa) down to 750 ng/mL) is less than 2.5 min.
Turning to Dabigatran, the “clot formation detected (time)” value in assay [2] (250 ng/mL Dabigatran, agonist (FIIa) concentration down to 710 ng/mL) was less than 2.5 min; in assay [2] (500 ng/mL Dabigatran, agonist (FIIa) down to 710 ng/mL), less than 2.5 min; in assay [2] (< 25 ng/mL Dabigatran, agonist (FIIa) concentration down to 71 ng/mL), less than 2.5 min.
Take unfractionated heparin: the clot formation result in assay [3] (channels coated with 7.5, 75, 750 ng/mL FXa) was “gradient of clot formation dependent on the concentration of FXa in the channel”; in assay [3] (negative control channel (buffer alone, no FXa)) it was “minimal clot formation”.
